From patent US9119396B2, “Method for promoting plant growth” (SUMITOMO CHEMICAL COMPANY, LIMITED, priority 2011, dated 2015)

What was measured:
[1] = tested on: Rice (cultivar: Nipponbare); assay: Test Example 5: reduction of low-temperature stress by treatment of rice seeds; assay type: in vivo; conditions: rice seed treatment, low-temperature stress 4° C. 5 days, then 12 days at 25° C.
Protocol: Evaluation Test for Reduction of Low-Temperature Stress by Treatment of Rice Seeds Rice (cultivar: Nipponbare) A blank slurry solution containing 5% (V/V) color coat red (Becker Underwood, Inc.), 5% (V/V) CF-Clear (Becker Underwood, Inc.) and 1% Maxim XL (Syngenta) was prepared. A slurry solution was prepared by dissolving the present compound 1 in the blank slurry solution such that 5 g or 50 g of the compound is applied to each 100 kg of rice seeds. In a 15-ml centrifuge tube (manufactured by AGC TECHNO GLASS CO., LTD.), 0.1 ml of the slurry solution was placed for each 3 g of rice seeds and stirred until the solution was dried, thereby coating the seeds. In addition, seeds were coated with the blank slurry solution and used as seeds for a non-treated group. A filter paper was placed on the bottoms of the holes of a plug tray having 406 holes, and the rice seeds treated above were sown on the filter paper. […] Twelve (12) days after the treatment, the fresh weight of the overground part of each plant was measured. The experiment was performed in four replications in each treated group and the average value was calculated. […]

[2] = tested on: Rice (cultivar: Nipponbare); assay: Test Example 1: promotion of root growth in hydroponics of rice; assay type: in vivo; conditions: 1 ppm, 3 days germination + 3 days cultivation, average of 4 or 5 individuals
Protocol: Evaluation Test for Promotion of Root Growth in Hydroponics of Rice Rice (cultivar: Nipponbare) A 1/10,000 volume of each DMSO solution containing each of the present compounds 1 to 4 at 10,000 ppm was added to a Hoagland solution for hydroponics (Hoagland and Amon, California Agricultural Experiment Station 1950 Circular 347 pp. 34) at ¼ concentration to obtain a solution for hydroponics containing each of the present compounds 1 to 4 at 1 ppm. These solutions were used in the treated-group. In a non-treated group, a solution for hydroponics obtained by adding a Hoagland solution for hydroponics at ¼ concentration to a 1/10,000 volume of DMSO was used. The rice seeds were immersed in an aqueous solution of 1% sodium hypochlorite for 10 minutes, followed by 70% ethanol solution to sterilize their surfaces. After that, the seeds were washed with distilled water. The sterilized seeds were immersed in each solution for hydroponics containing the test compound at 1 ppm, and incubated at a temperature of 28° C. for 3 days under dark conditions to stimulate the germination of the seeds. Then, 30 ml of each solution for hydroponics containing the test compound at 1 ppm was dispensed into a plastic tube (20 mm in diameter×113 mm in height) covered with a cardboard on the lateral surface for blocking a light. A float made of a styrene board and a vinyl mesh was placed on the water surface of each solution for hydroponics, and the rice seeds obtained after the stimulation of germination were placed on the float. The seeds were cultivated for 3 days under the conditions of an illuminance of 4,000 lux at the top of the tube, a temperature of 26° C., a humidity of 50%, and a day length of 16 hours. The root length of the rice seedlings obtained after the cultivation was measured by using WinRHIZO system (manufactured by REGENT INSTRUMENTS). The average value of the root length in the treated group was calculated from the measurement values of 4 or 5 individuals. As a result, the root length in the treated group, wherein the plants were treated with the present compound 1, 2, 3 or 4 (at a concentration of 1 ppm in each case), was much longer than that in the non-treated group.

COC(=O)c1cc2cc(C(F)(F)F)ccc2s1 [compound 1]
fresh weight of the overground part of plants vs non-treated group ([1]; 5 g per 100 kg of seeds): much heavier | fresh weight of the overground part of plants vs non-treated group ([1]; 50 g per 100 kg of seeds): much heavier | root length of the rice seedlings vs non-treated group [2]: much longer
